Data as given in the supplement of paper PMC10307832.

What was measured:
Assay in all cases: relative viability (nuclei count vs DMSO), 5 days (fraction); higher = more cells survive
[1] = compound: Cn1cc(-c2cnc3ccc4ccc(CS(=O)(=O)NCc5ccccn5)cc4c(=O)c3c2)cn1 [MK-8033] + NC(=O)Nc1cc(-c2cccc(F)c2)sc1C(=O)N[C@H]1CCCNC1 [AZD7762] (partner 0.2 µM)
Method in brief: (§1)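 Relative viability was taken as the ratio of nuclei in treated wells to nuclei in vehicle wells. Lung cancer cell lines in 1536-well plates received compounds by pin tool one day after seeding, either one drug alone or a fixed anchor-drug dose plus five library-drug doses (not always all listed) in √10 steps. Nuclei were counted on 4× images after 5 days of treatment, and values are medians of duplicate plates.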

[2] = compound: CC[C@@H](C)CNCC(=O)N1CCC2=C([C@@H]1COC3=CC=CC(=C3)C)C=CS2 [RU-SKI 43] + CC(=O)Nc1cccc(-n2c(=O)n(C3CC3)c(=O)c3c(Nc4ccc(I)cc4F)n(C)c(=O)c(C)c32)c1 [Trametinib] (partner 0.02 µM)
Method in brief: as §1

[3] = compound: CCc1c2c(nc3ccc(OC(=O)N4CCC(N5CCCCC5)CC4)cc13)-c1cc3c(c(=O)n1C2)COC(=O)[C@]3(O)CC [Irinotecan] + CC(=O)Nc1cccc(-n2c(=O)n(C3CC3)c(=O)c3c(Nc4ccc(I)cc4F)n(C)c(=O)c(C)c32)c1 [Trametinib] (partner 0.02 µM)
Method in brief: as §1

[4] = compound: Cn1cc(-c2cnc3ccc4ccc(CS(=O)(=O)NCc5ccccn5)cc4c(=O)c3c2)cn1 [MK-8033] + O=C(c1cc(Cc2n[nH]c(=O)c3ccccc23)ccc1F)N1CCN(C(=O)C2CC2)CC1 [Olaparib] (partner 8 µM)
Method in brief: as §1

| Cell Line | relative viability ([1]; first compound 0.02 µM) | relative viability ([1]; first compound 0.06325 µM) | relative viability ([1]; first compound 0.2 µM) | relative viability ([1]; first compound 0.6325 µM) | relative viability ([1]; first compound 2 µM) | relative viability ([2]; first compound 0.1 µM) | relative viability ([2]; first compound 0.3162 µM) | relative viability ([2]; first compound 1 µM) | relative viability ([2]; first compound 3.162 µM) | relative viability ([2]; first compound 10 µM) | relative viability ([3]; first compound 2 µM) | relative viability ([3]; first compound 6.325 µM) | relative viability ([3]; first compound 20 µM) | relative viability ([4]; first compound 0.02 µM) | relative viability ([4]; first compound 0.06325 µM) | relative viability ([4]; first compound 0.2 µM) | relative viability ([4]; first compound 0.6325 µM) | relative viability ([4]; first compound 2 µM) | relative viability ([3]; first compound 0.6325 µM) |
| --- | --- | --- | --- | --- | --- | --- | --- | --- | --- | --- | --- | --- | --- | --- | --- | --- | --- | --- | --- |
| NCI-H1734 | 0.544 | 0.361 | 0.522 | 0.572 | 0.54 | 0.656 | 0.758 | 0.724 | 0.695 | 0.622 | 0.261 | 0.188 | 0.188 | 0.644 | 0.553 | 0.546 | 0.615 | 0.648 | – |
| NCI-H1755 | 0.487 | 0.35 | 0.384 | 0.401 | 0.452 | 0.751 | 0.866 | 0.839 | 0.833 | 0.768 | 0.456 | 0.405 | 0.469 | 0.899 | 0.916 | 0.863 | 0.846 | 0.735 | 0.733 |
| NCI-H1792 | 0.582 | 0.502 | 0.617 | 0.7 | 0.515 | 0.36 | 0.53 | 0.486 | 0.327 | 0.362 | 0.532 | 0.225 | 0.205 | 0.451 | 0.448 | 0.337 | 0.351 | 0.3 | 0.356 |
| NCI-H1793 | 0.442 | – | 0.331 | 0.413 | 0.328 | 0.439 | 0.386 | 0.435 | 0.473 | 0.479 | 0.515 | 0.351 | 0.262 | 0.863 | – | 0.688 | 0.894 | 0.94 | – |
| NCI-H1915 | 0.671 | 0.627 | 0.684 | 0.681 | 0.711 | 0.296 | 0.34 | 0.311 | 0.288 | 0.265 | 0.175 | 0.122 | 0.127 | 0.243 | 0.241 | 0.267 | 0.252 | 0.259 | 0.25 |
| NCI-H1944 | 0.549 | 0.377 | 0.525 | 0.497 | 0.561 | 0.349 | 0.406 | 0.417 | 0.387 | 0.388 | 0.204 | 0.177 | 0.178 | 0.402 | 0.365 | 0.39 | 0.39 | 0.415 | 0.291 |
| NCI-H1975 | 0.72 | 0.777 | 0.691 | 0.617 | 0.689 | 0.311 | 0.351 | 0.355 | 0.296 | 0.257 | 0.341 | 0.292 | 0.224 | 0.721 | 0.757 | 0.789 | 0.77 | 0.78 | 0.224 |
| NCI-H1993 | 0.657 | 0.679 | 0.584 | 0.529 | 0.407 | 0.474 | 0.514 | 0.615 | 0.579 | 0.694 | 0.5 | 0.527 | 0.517 | 0.996 | 1.01 | 0.705 | 0.946 | 0.669 | – |
| NCI-H2085 | 0.975 | 0.878 | 0.923 | 0.988 | 0.836 | 0.506 | 0.493 | 0.494 | 0.653 | 0.499 | 0.397 | 0.32 | 0.252 | 0.771 | 0.788 | 0.766 | 0.794 | 0.73 | 0.521 |
| NCI-H2087 | 1.43 | 1.32 | 1.22 | 1.3 | 1.22 | 0.233 | 0.159 | 0.221 | 0.189 | 0.161 | 0.151 | 0.137 | 0.196 | 0.593 | 0.57 | 0.535 | 0.492 | 0.622 | 0.0883 |
| NCI-H2126 | 1.06 | 0.993 | 1.02 | 0.942 | 1.02 | 0.56 | 0.605 | 0.506 | 0.607 | 0.559 | 0.347 | 0.273 | 0.304 | 0.978 | 0.921 | 0.806 | 0.903 | 0.875 | 0.546 |
| NCI-H2170 | 0.733 | 0.768 | 0.829 | 0.828 | 0.848 | 0.975 | 1.39 | 1.04 | 0.908 | 0.946 | 0.309 | 0.119 | 0.111 | 0.602 | 0.539 | 0.648 | 0.59 | 0.536 | 0.798 |
| NCI-H2342 | 0.636 | 0.438 | 0.454 | 0.454 | 0.646 | 0.764 | – | 0.842 | 0.896 | 0.778 | 0.89 | 0.786 | 0.494 | 0.448 | 0.393 | 0.507 | 0.424 | 0.418 | 0.872 |
| NCI-H2347 | 0.717 | 0.784 | 0.68 | 0.722 | 0.831 | 0.293 | 0.275 | 0.388 | 0.289 | 0.302 | 0.382 | 0.351 | 0.415 | 0.564 | 0.573 | 0.535 | 0.617 | 0.575 | 0.271 |
| NCI-H2405 | 0.807 | 0.734 | 0.638 | 0.701 | 0.742 | 0.645 | 0.681 | 0.612 | 0.713 | 0.581 | 0.734 | 0.358 | 0.179 | 0.832 | 0.881 | 0.868 | 0.913 | 0.876 | – |
| NCI-H3122 | 0.931 | 0.886 | 0.965 | 1.06 | 0.977 | 0.244 | 0.233 | 0.241 | 0.252 | 0.259 | 0.146 | 0.111 | 0.108 | 0.576 | 0.662 | 0.618 | 0.572 | 0.589 | 0.192 |
| PC-3 [JPC-3] | 0.705 | – | 0.656 | 0.843 | 0.782 | 0.63 | 0.523 | 0.79 | 0.662 | 0.62 | 0.811 | 0.534 | 0.358 | 1.08 | – | 1.04 | 1.16 | 1.09 | 0.671 |
